# In ChEMBL document CHEMBL3758149, “3-(Piperidin-4-ylmethoxy)pyridine Containing Compounds Are Potent Inhibitors of Lysine Specific Demethylase 1” (J Med Chem, 2016):
# Target: T1, Lysine-specific histone demethylase 1A (Homo sapiens, UniProt O60341)
row,IC50,Structure (SMILES)
1,0.077 µM,CN1CCN(C(=O)CN[C@H]2C[C@@H]2c2ccc(-c3ccc(F)nc3)cc2)CC1 (relative stereo)

# Target: T2, Amine oxidase [flavin-containing] A (Homo sapiens, UniProt P21397)
# T2 sequence (P21397 whole entry): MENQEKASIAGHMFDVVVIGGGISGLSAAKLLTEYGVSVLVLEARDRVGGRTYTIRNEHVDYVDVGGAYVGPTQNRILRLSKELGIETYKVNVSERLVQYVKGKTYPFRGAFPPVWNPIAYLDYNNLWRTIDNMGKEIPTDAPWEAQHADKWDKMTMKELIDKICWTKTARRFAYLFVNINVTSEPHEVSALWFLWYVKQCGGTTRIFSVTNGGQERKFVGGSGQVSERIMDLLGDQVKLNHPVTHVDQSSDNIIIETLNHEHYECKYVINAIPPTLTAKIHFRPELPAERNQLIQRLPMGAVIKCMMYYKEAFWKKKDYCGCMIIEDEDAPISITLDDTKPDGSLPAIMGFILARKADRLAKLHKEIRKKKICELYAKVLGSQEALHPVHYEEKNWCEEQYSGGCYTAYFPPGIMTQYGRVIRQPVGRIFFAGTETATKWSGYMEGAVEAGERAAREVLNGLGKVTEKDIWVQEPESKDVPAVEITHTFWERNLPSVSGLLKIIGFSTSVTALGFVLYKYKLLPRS
# Description: Inhibition of recombinant human MAO-A after 60 mins MAO-glo assay
row,Ki,Structure (SMILES)
1,> 50 µM,N#Cc1ccc(-c2cc(OCC3CCNCC3)cnc2-c2ccccc2)cc1
2,> 50 µM,N#Cc1ccc(-c2cc(OCC3CCNCC3)cnc2-c2ccc(OC(F)(F)F)cc2)cc1
3,> 50 µM,Cc1ccc(-c2ncc(OCC3CCNCC3)cc2-c2ccc(C#N)cc2)cc1
4,> 50 µM,N#Cc1ccc(-c2cc(OCC3CCNCC3)cnc2-c2ccc(C(F)(F)F)cc2)cc1

# Target: T1, Lysine-specific histone demethylase 1A
# Remark: another data set of the same source
row,Structure (SMILES),Ki
1,Cc1ccc(-c2ncc(OCC3CCNCC3)cc2-c2ccc(C(=O)N3CCOCC3)cc2)cc1,> 50 µM
2,Cc1ccc(-c2ncc(OCc3ccccc3)cc2-c2ccc(C#N)cc2)cc1,> 50 µM
3,c1ccc(-c2ccc(OCC3CCNCC3)cn2)cc1,> 50 µM
4,Cc1ccc(-c2ncc(OCC3CCNCC3)cc2-c2ccc(C(=O)N3CCNCC3)cc2)cc1,> 50 µM
5,Cc1ccc(-c2ncc(OCC3CCNCC3)cc2-c2ccc(CO)cc2)cc1,> 50 µM
6,Cc1ccc(-c2ncc(OCC3CCNCC3)cc2-c2ccc(C(=O)N3CCCCC3)cc2)cc1,> 50 µM
7,c1ccc(-c2cc(OCC3CCNCC3)cnc2-c2ccccc2)cc1,> 50 µM
8,Cc1ccc(-c2ncc(O)cc2-c2ccc(C#N)cc2)cc1,> 50 µM

# Next, values leading:
row,Ki,Structure (SMILES)
1,> 50 µM,Cc1ccc(-c2ncc(OCC3CCNCC3)cc2-c2ccc(CN3CCCCC3)cc2)cc1
2,9.1 µM,N#Cc1ccc(-c2ncc(OCC3CCNCC3)nc2-c2ccc(C#N)cc2)cc1
3,0.54 µM,N#Cc1ccc(-c2nc(OCC3CCNCC3)cnc2-c2ccc(Br)cc2)cc1
4,> 50 µM,C#Cc1ccc(-c2cc(OCC3CCNCC3)cnc2-c2ccc(C)cc2)cc1
5,26.2 µM,Brc1ccc(-c2ncc(OCC3CCNCC3)nc2-c2ccc(Br)cc2)cc1
6,16.5 µM,N#Cc1ccc(-c2ncc(OCC3CCNCC3)nc2-c2ccc(Br)cc2)cc1
7,> 50 µM,Cc1ccc(-c2ncc(OCC3CCNCC3)cc2-c2ccc(C(=O)O)cc2)cc1
8,> 50 µM,Cc1ccc(-c2ncc(OCC3CCNCC3)cc2-c2ccc(C(=O)NC3CC3)cc2)cc1
